Reference: ChEMBL document CHEMBL4616668, “Discovery of a High Affinity, Orally Bioavailable Macrocyclic FXIa Inhibitor with Antithrombotic Activity in Preclinical Species” (J Med Chem, 2020)

How the values were obtained:
[1] = Clearance in Sprague-Dawley rat at 0.6 mg/kg, iv; format: ADME, organism-based; conditions: in vivo
[2] = Half life in rat liver microsomes; format: ADME, Microsome
[3] = Oral bioavailability in Sprague-Dawley rat at […]; format: ADME, organism-based; conditions: in vivo
[4] = Half life in dog liver microsomes; format: ADME, Canis lupus familiaris, Microsome
Plasma [5] = assay: Anticoagulant activity in human plasma assessed as activated partial thromboplastin time; format: functional
Coagulation factor XI = Coagulation factor XI (Homo sapiens, UniProt P03951); assay: Inhibition of human factor11a using pyro-Glu-Pro-Arg-pNA(para-nitroaniline) substrate by spectrophotometry
[6] = Half life in cynomolgus monkey liver microsomes; format: ADME, Macaca fascicularis, Microsome
[7] = Half life in human liver microsomes; format: ADME, Microsome
Plasma [8] = assay: Anticoagulant activity in rabbit plasma assessed as activated partial thromboplastin time; format: functional, Oryctolagus cuniculus
[9] = Toxicity in New Zealand White rabbit model of cuticle bleeding time assessed as increase in cuticle bleeding time at 4 mg/kg/hr dosed as continuous intravenous infusion 30 to 60 mins prior to cuticle transection relative to control; format: organism-based, Oryctolagus cuniculus; conditions: in vivo
[10] = Apparent volume of distribution at steady-state in Sprague-Dawley rat at 0.6 mg/kg, iv; format: ADME, organism-based; conditions: in vivo, read-out: Vdss(app)
[11] = AUC in Sprague-Dawley rat at […], po; format: ADME, organism-based; conditions: in vivo
[12] = Clearance in cynomolgus monkey at 0.5 mg/kg, iv; format: ADME, organism-based, Macaca fascicularis; conditions: in vivo
[13] = Permeability form apical to basolateral side in human Caco2 cells; format: ADME, cell-based; conditions: Caco-2, read-out: permeability
[14] = Terminal half life in cynomolgus monkey at 0.5 mg/kg, iv; format: ADME, organism-based, Macaca fascicularis; conditions: in vivo, read-out: beta t1/2 (converted)
[15] = AUC in Sprague-Dawley rat at 0.6 mg/kg, iv; format: ADME, organism-based; conditions: in vivo
[16] = Terminal half life in Sprague-Dawley rat at 0.6 mg/kg, iv; format: ADME, organism-based; conditions: in vivo, read-out: beta t1/2 (converted)
[17] = Oral bioavailability in Beagle dog at 1.1 mg/kg; format: ADME, organism-based, Canis lupus familiaris; conditions: in vivo
[18] = Oral bioavailability in cynomolgus monkey at 1.5 mg/kg; format: ADME, organism-based, Macaca fascicularis; conditions: in vivo
[19] = Permeability form basolateral to apical side in human Caco2 cells; format: ADME, cell-based; conditions: Caco-2, read-out: permeability
[20] = AUC in Beagle dog at 1.1 mg/kg, po; format: ADME, organism-based, Canis lupus familiaris; conditions: in vivo
[21] = AUC in cynomolgus monkey at 0.5 mg/kg, iv; format: ADME, organism-based, Macaca fascicularis; conditions: in vivo
[22] = Clearance in Beagle dog at 0.4 mg/kg, iv; format: ADME, organism-based, Canis lupus familiaris; conditions: in vivo
[23] = AUC in Beagle dog at 0.4 mg/kg, iv; format: ADME, organism-based, Canis lupus familiaris; conditions: in vivo
[24] = Terminal half life in Beagle dog at 0.4 mg/kg, iv; format: ADME, organism-based, Canis lupus familiaris; conditions: in vivo, read-out: beta t1/2 (converted)
[25] = Apparent volume of distribution at steady-state in Beagle dog at 0.4 mg/kg, iv; format: ADME, organism-based, Canis lupus familiaris; conditions: in vivo, read-out: Vdss(app)
[26] = Apparent volume of distribution at steady-state in cynomolgus monkey at 0.5 mg/kg, iv; format: ADME, organism-based, Macaca fascicularis; conditions: in vivo, read-out: Vdss(app)
[27] = AUC in cynomolgus monkey at 1.5 mg/kg, po; format: ADME, organism-based, Macaca fascicularis; conditions: in vivo

Coagulation factor XI, sequence (P03951 19-387 limits assumed): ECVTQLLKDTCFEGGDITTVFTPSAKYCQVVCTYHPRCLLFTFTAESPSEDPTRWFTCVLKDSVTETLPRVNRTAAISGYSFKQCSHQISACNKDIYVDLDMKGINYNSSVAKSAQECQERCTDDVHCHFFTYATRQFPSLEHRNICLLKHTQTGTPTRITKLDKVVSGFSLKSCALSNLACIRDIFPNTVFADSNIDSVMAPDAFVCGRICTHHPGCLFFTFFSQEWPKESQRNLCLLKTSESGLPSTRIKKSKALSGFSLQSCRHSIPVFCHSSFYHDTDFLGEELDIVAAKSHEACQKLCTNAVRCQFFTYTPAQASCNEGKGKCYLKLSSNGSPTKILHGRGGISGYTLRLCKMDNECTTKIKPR
Coagulation factor XI, sequence (P03951 388-625 limits assumed): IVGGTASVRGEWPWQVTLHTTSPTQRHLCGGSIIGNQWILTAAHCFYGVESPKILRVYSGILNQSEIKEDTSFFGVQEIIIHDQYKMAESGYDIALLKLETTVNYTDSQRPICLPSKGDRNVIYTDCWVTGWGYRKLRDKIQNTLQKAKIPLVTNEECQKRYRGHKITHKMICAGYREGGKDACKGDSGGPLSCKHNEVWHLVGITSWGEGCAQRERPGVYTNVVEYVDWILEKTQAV

| SMILES | half-life [2] | half-life [4] | EC1.5 (Plasma [5]) | Ki (Coagulation factor XI) | half-life [6] | half-life [7] | also measured |
| --- | --- | --- | --- | --- | --- | --- | --- |
| COC(=O)Nc1ccc2c(c1)NC(=O)[C@H](C)CCC[C@H](N1CC[C@H](c3c(F)ccc(Cl)c3F)OC1=O)c1cc-2ccn1 | 35 min | 27 min | 0.5 µM | 0.6 nM | 12 min | 56 min | clearance [1]: 23 mL/min/kg; bioavailability [3]: 37% |
| COC(=O)Nc1ccc2c(c1)NC(=O)[C@H](C)CCC[C@H](N1CCN(c3c(F)ccc(Cl)c3F)CC1=O)c1cc-2ccn1 | 9 min | 6 min | 4.6 µM | 4.5 nM | 1 min | 4 min | – |
| COC(=O)Nc1ccc2c(c1)NC(=O)[C@H](C)CCC[C@H](N1CC[C@H](c3c(F)ccc(Cl)c3F)OC1=O)c1cc-2cnc1F | 6 min | 15 min | 1.2 µM | 2.7 nM | – | 9 min | – |
| COC(=O)Nc1ccc2c(c1)NC(=O)[C@H](C)CCC[C@H](N1CC[C@H](c3c(F)ccc(Cl)c3F)OC1=O)c1ccnc-2c1 | 29 min | 44 min | 0.5 µM | 1.6 nM | 9 min | 36 min | clearance [1]: 33 mL/min/kg; bioavailability [3]: 48% |
| COC(=O)Nc1ccc2c(c1)NC(=O)[C@H](C)CCC[C@H](N1CCC(c3c(F)ccc(Cl)c3F)CC1=O)c1cc-2ccn1 (mixture of isomers) | 15 min | 13 min | 2.8 µM | 0.9 nM | 3 min | 8 min | – |
| COC(=O)Nc1ccc2c(c1)NC(=O)[C@H](C)CCC[C@H](N1CCC(c3c(F)ccc(Cl)c3F)=CC1=O)c1cc-2ccn1.O=C(O)C(F)(F)F | – | – | – | – | – | – | EC1.5 (Plasma [8]): 26 µM |
| CC(=O)Oc1ccccc1C(=O)O [ASPIRIN] | – | – | – | – | – | – | fold change (FC) [9]: 2.3 |
| COC(=O)Nc1ccc2c(c1)NC(=O)[C@H](C)CCC[C@H](N1CC(=O)N(c3c(F)ccc(Cl)c3F)CC1=O)c1cc-2ccn1 | 55 min | 72 min | 1.4 µM | 4.9 nM | 27 min | 75 min | – |
| COC(=O)Nc1ccc2c(c1)NC(=O)[C@H](C)CCC[C@H](N1CCN(c3c(F)ccc(Cl)c3F)C(=O)C1=O)c1cc-2ccn1 | 60 min | 64 min | 4.3 µM | 14 nM | 80 min | 76 min | – |
| COC(=O)Nc1ccc2c(c1)NC(=O)[C@H](C)CCC[C@H](N1CC[C@H](c3c(F)ccc(Cl)c3F)OC1=O)c1ncc-2[nH]1 | 48 min | 38 min | 0.6 µM | 0.7 nM | 17 min | 55 min | Vd [10]: 3.2 L/kg; AUC [11]: 0.687 µM·h; clearance [12]: 56 mL/min/kg; clearance [1]: 33 mL/min/kg; Papp A→B [13]: 3.8 ×10⁻⁶ cm/s; half-life [14]: 84 min; AUC [15]: 0.52 µM·h; half-life [16]: 84 min; bioavailability [3]: 54%; bioavailability [17]: 57%; bioavailability [18]: 29%; Papp B→A [19]: 23.8 ×10⁻⁶ cm/s; AUC [20]: 0.446 µM·h; AUC [21]: 0.233 µM·h; clearance [22]: 38 mL/min/kg; AUC [23]: 0.285 µM·h; half-life [24]: 114 min; Vd [25]: 5.1 L/kg; Vd [26]: 9.2 L/kg; AUC [27]: 0.263 µM·h |
| COC(=O)Nc1ccc2c(c1)NC(=O)[C@H](C)CCC[C@H](N1CC[C@H](c3c(F)ccc(Cl)c3F)OC1=O)c1cncc-2c1 | 9 min | 21 min | 0.6 µM | 1.8 nM | 2 min | 17 min | – |
| COC(=O)Nc1ccc2c(c1)NC(=O)[C@H](C)CCC[C@H](N1CCC(c3c(F)ccc(Cl)c3F)NC1=O)c1cc-2ccn1 (stereo partly specified) | 40 min | 27 min | 7.5 µM | 0.5 nM | 2 min | 17 min | – |
| COC(=O)Nc1ccc2c(c1)NC(=O)[C@H](C)CCC[C@H](N1CCC(c3c(F)ccc(Cl)c3F)=CC1=O)c1cc-2ccn1 | – | – | 1.8 µM | – | – | – | – |
